Data published in US6733777B2, “Cationic reagents of transfection” (Qiagen GmbH, priority 1996, dated 2004).
Read-outs that look alike come from different tables or passages of the source. Marks after values point to notes of the source that are not given here.

Legend:
[1] = test system: COS7 cells; assay: Transfection of COS7 cells with pCMVβ, β-Gal activity assay (cytofectins having three ammonium groups); format: cell-based; settings: liposome with DOPE, 0.5 μg pCMVβ
Method: (§1) N,N′,N″-trialkyl-N,N,N′,N″,N″-pentamethyl-bis-(2-ammonioethyl)ammoniumbromide Liposomes comprising compound (3) [synthesis according to Example 1B] and DOPE were prepared at 60° C., using DOPE without sonication.
(§2) Cells were incubated for 48 hours at 37° C., 5% CO2 and then lysed.
(§3) The results below (Table 7) indicate the optimal transfection efficiency of the reporter plasmid pCMVβ using the above-mentioned liposomes as a percentage of the highest transfection efficiency obtained by Lipofectamine. R indicates the number of carbons in the alkyl chain. Concentration of DOPE in each liposome may be calculated by multiply the X(DOPE) value by […].

[2] = test system: HeLaS3 cells; assay: Transfection of HeLaS3 cells with pCMVβ, β-Gal activity assay (cytofectins having three ammonium groups); format: cell-based; settings: liposome with DOPE, 0.5 μg pCMVβ
Method: as §1, §2, §3

[3] = test system: Huh7 cells; settings: Huh7, liposome with DOPE, 0.5 μg pCMVβ
Method: The resulting liposomes were used to transfect Huh7 cells in vitro with the reporter plasmid pCMVβ (Clontech). Transfection efficiencies, as obtained by OD measurements after cell-lysis and β-Gal activity assay, were compared to efficiencies obtained in parallel with a commercially available liposome-preparation (Lipofectamine, Gibco LTI) and given as percentage of Lipofectamine efficiency. For each transfection, 0.5 μg of pCMVβ (isolated with EndoFree, QIAGEN) was used per well of a 96 well plate. The DNA was diluted to 50 μl with DMEM medium (Gibco LTI) and combined with 1, 2, 3 and 4 μl of the liposome preparations subsequently diluted to 50 μl with DMEM medium. DNA and liposome solutions were mixed and applied to the cells for 6 hours at 37° C., 5% CO2. Afterwards, medium was changed to DMEM containing 10% fetal calf serum. Cells were lysed after 48 h incubation at 37° C., 5% CO2. Twofold determinations each were performed. The values were averaged and the highest efficiency (optimum) within a row was given as percentage value of the highest efficiency (optimum) obtained with Lipofectamine.

[4] = test system: HeLaS3 cells; assay: Transfection of HeLaS3 cells with pCMVβ, β-Gal activity assay (variation of counter ion); format: cell-based; settings: 10-2-10 cytofectin with the given counter ion; for Results (%) (optimal transfection efficiency as percentage of the highest efficiency obtained by Lipofectamine): liposome with DOPE, 0.5 μg pCMVβ; for transfection efficiency compared with Lipofectamine (in words) / ranking of transfection efficiency among the counter ions (in words): liposomes with DOPE
Method: Liposomes were used to transfect HeLaS3 cells in vitro with the reporter plasmid pCMVβ (Clontech). […] Cells were incubated for 48 hours at 37° C., 5% CO2 and then lysed.
In similar studies in HeLaS3 cells, the same vector was transfected with liposomes comprising bromide counter ions and the cytofectin, 10-2-10 Ethandiyl-1,2-bis(decyl dimethylammonium).

[5] = X(DOPE) 0.5, without sonication
[6] = X(DOPE) 0.6, without sonication
[7] = X(DOPE) 0.7, without sonication
[8] = X(DOPE) 0.8, without sonication
[9] = X(DOPE) 0.50, without sonication
[10] = X(DOPE) 0.60, without sonication
[11] = X(DOPE) 0.70, without sonication
[12] = X(DOPE) 0.80, without sonication

CCCCCCCCCCCCCCCCCC[N+](C)(C)CC[N+](C)(CCCCCCCCCCCCCCCCCC)CC[N+](C)(C)CCCCCCCCCCCCCCCCCC.[Br-].[Br-].[Br-] [R = 18, N,N′,N″-trioctadcyl-N,N,N′,N″,N″-pentamethyl-bis-(2-ammonioethyl)-ammoniumbromide]
Results COS7 (%) (optimal transfection efficiency as percentage of the highest efficiency obtained by Lipofectamine) [1, 5]: 20% | Results COS7 (%) (optimal transfection efficiency as percentage of the highest efficiency obtained by Lipofectamine) [1, 6]: 34% | Results COS7 (%) (optimal transfection efficiency as percentage of the highest efficiency obtained by Lipofectamine) [1, 7]: 79% | Results COS7 (%) (optimal transfection efficiency as percentage of the highest efficiency obtained by Lipofectamine) [1, 8]: 93% | Results HeLaS3 (%) (optimal transfection efficiency as percentage of the highest efficiency obtained by Lipofectamine) [2, 5]: 65% | Results HeLaS3 (%) (optimal transfection efficiency as percentage of the highest efficiency obtained by Lipofectamine) [2, 6]: 61% | Results HeLaS3 (%) (optimal transfection efficiency as percentage of the highest efficiency obtained by Lipofectamine) [2, 7]: 80% | Results HeLaS3 (%) (optimal transfection efficiency as percentage of the highest efficiency obtained by Lipofectamine) [2, 8]: 61%

Ethanediyl-1,2-bis(hexadecyl dimethylammonium bromide) [16-2-16]
Result (%) (transfection efficiency as percentage of Lipofectamine efficiency) [3, 9]: 104% | Result (%) (transfection efficiency as percentage of Lipofectamine efficiency) [3, 10]: 124% | Result (%) (transfection efficiency as percentage of Lipofectamine efficiency) [3, 11]: 126% | Result (%) (transfection efficiency as percentage of Lipofectamine efficiency) [3, 12]: 169%

Ethanediyl-1,2-bis(tetradecyl dimethylammonium bromide) [14-2-14]
Result (%) (transfection efficiency as percentage of Lipofectamine efficiency) [3, 9]: 48% | Result (%) (transfection efficiency as percentage of Lipofectamine efficiency) [3, 10]: 74% | Result (%) (transfection efficiency as percentage of Lipofectamine efficiency) [3, 11]: 98% | Result (%) (transfection efficiency as percentage of Lipofectamine efficiency) [3, 12]: 157%

CCCCCCCCCC[N+](C)(C)CC[N+](C)(C)CCCCCCCCCC.O=C([O-])C(=O)[O-] [oxalate, Ethanediyl-1,2-bis(decyldimethylammonium) oxalate]
Results (%) (optimal transfection efficiency as percentage of the highest efficiency obtained by Lipofectamine) [4, 9]: 275% | Results (%) (optimal transfection efficiency as percentage of the highest efficiency obtained by Lipofectamine) [4, 10]: 0% | Results (%) (optimal transfection efficiency as percentage of the highest efficiency obtained by Lipofectamine) [4, 11]: 0% | Results (%) (optimal transfection efficiency as percentage of the highest efficiency obtained by Lipofectamine) [4, 12]: 0%

Ethanediyl-1,2-bis(decyl dimethylammonium) thiosulfate
Results (%) (optimal transfection efficiency as percentage of the highest efficiency obtained by Lipofectamine) [4, 9]: 1552% | Results (%) (optimal transfection efficiency as percentage of the highest efficiency obtained by Lipofectamine) [4, 10]: 1915% | Results (%) (optimal transfection efficiency as percentage of the highest efficiency obtained by Lipofectamine) [4, 11]: 605% | Results (%) (optimal transfection efficiency as percentage of the highest efficiency obtained by Lipofectamine) [4, 12]: 844% | transfection efficiency compared with Lipofectamine (in words) [4]: higher transfection efficiency values than transfections with Lipofectamine

CCCCCCCCCC[N+](C)(C)CC[N+](C)(C)CCCCCCCCCC.O=S(=O)([O-])[O-] [sulfate, ethanediyl-1,2-bis(dimethyldecylammonium sulfate)]
Results (%) (optimal transfection efficiency as percentage of the highest efficiency obtained by Lipofectamine) [4, 9]: 879% | Results (%) (optimal transfection efficiency as percentage of the highest efficiency obtained by Lipofectamine) [4, 10]: 927% | Results (%) (optimal transfection efficiency as percentage of the highest efficiency obtained by Lipofectamine) [4, 11]: 265% | Results (%) (optimal transfection efficiency as percentage of the highest efficiency obtained by Lipofectamine) [4, 12]: 1201% | transfection efficiency compared with Lipofectamine (in words) [4]: higher transfection efficiency values than transfections with Lipofectamine

CCCCCCCCCCCCCCCC[N+](C)(C)CC[N+](C)(CCCCCCCCCCCCCCCC)CC[N+](C)(C)CCCCCCCCCCCCCCCC.[Br-].[Br-].[Br-] [R = 16, N,N′,N″-trihexadecyl-N,N,N′,N″,N″-pentamethyl-bis-(2-ammonioethyl)-ammoniumbromide]
Results COS7 (%) (optimal transfection efficiency as percentage of the highest efficiency obtained by Lipofectamine) [1, 5]: 18% | Results COS7 (%) (optimal transfection efficiency as percentage of the highest efficiency obtained by Lipofectamine) [1, 6]: 16% | Results COS7 (%) (optimal transfection efficiency as percentage of the highest efficiency obtained by Lipofectamine) [1, 7]: 44% | Results COS7 (%) (optimal transfection efficiency as percentage of the highest efficiency obtained by Lipofectamine) [1, 8]: 38% | Results HeLaS3 (%) (optimal transfection efficiency as percentage of the highest efficiency obtained by Lipofectamine) [2, 5]: 31% | Results HeLaS3 (%) (optimal transfection efficiency as percentage of the highest efficiency obtained by Lipofectamine) [2, 6]: 39% | Results HeLaS3 (%) (optimal transfection efficiency as percentage of the highest efficiency obtained by Lipofectamine) [2, 7]: 70% | Results HeLaS3 (%) (optimal transfection efficiency as percentage of the highest efficiency obtained by Lipofectamine) [2, 8]: 75%

CCCCCCCCCC[N+](C)(C)CC[N+](C)(C)CCCCCCCCCC.O=P([O-])(O)O.O=P([O-])(O)O [dihydrogenphosphate, Ethanediyl-1,2-bis(decyldimethylammonium) dihydrogenphosphate]
Results (%) (optimal transfection efficiency as percentage of the highest efficiency obtained by Lipofectamine) [4, 9]: 1966% | Results (%) (optimal transfection efficiency as percentage of the highest efficiency obtained by Lipofectamine) [4, 10]: > 3230* % | Results (%) (optimal transfection efficiency as percentage of the highest efficiency obtained by Lipofectamine) [4, 11]: 580% | Results (%) (optimal transfection efficiency as percentage of the highest efficiency obtained by Lipofectamine) [4, 12]: 615% | ranking of transfection efficiency among the counter ions (in words) [4]: highest transfection efficiencies | transfection efficiency compared with Lipofectamine (in words) [4]: higher transfection efficiency values than transfections with Lipofectamine

CCCCCCCCCC[N+](C)(C)CC[N+](C)(CCCCCCCCCC)CC[N+](C)(C)CCCCCCCCCC.[Br-].[Br-].[Br-] [R = 10, N,N′,N″-tridecyl-N,N,N′,N″,N″-pentamethyl-bis-(2-ammonioethyl)-ammoniumbromide]
Results COS7 (%) (optimal transfection efficiency as percentage of the highest efficiency obtained by Lipofectamine) [1, 5]: 11% | Results COS7 (%) (optimal transfection efficiency as percentage of the highest efficiency obtained by Lipofectamine) [1, 6]: 9% | Results COS7 (%) (optimal transfection efficiency as percentage of the highest efficiency obtained by Lipofectamine) [1, 7]: 16% | Results COS7 (%) (optimal transfection efficiency as percentage of the highest efficiency obtained by Lipofectamine) [1, 8]: 20% | Results HeLaS3 (%) (optimal transfection efficiency as percentage of the highest efficiency obtained by Lipofectamine) [2, 5]: 231% | Results HeLaS3 (%) (optimal transfection efficiency as percentage of the highest efficiency obtained by Lipofectamine) [2, 6]: 222% | Results HeLaS3 (%) (optimal transfection efficiency as percentage of the highest efficiency obtained by Lipofectamine) [2, 7]: 52% | Results HeLaS3 (%) (optimal transfection efficiency as percentage of the highest efficiency obtained by Lipofectamine) [2, 8]: 47%

CCCCCCCCCCCCCC[N+](C)(C)CC[N+](C)(CCCCCCCCCCCCCC)CC[N+](C)(C)CCCCCCCCCCCCCC.[Br-].[Br-].[Br-] [R = 14, N,N′,N″-tritetradecyl-N,N,N′,N″,N″-pentamethyl-bis-(2-ammonioethyl) ammoniumbromide]
Results COS7 (%) (optimal transfection efficiency as percentage of the highest efficiency obtained by Lipofectamine) [1, 5]: 8% | Results COS7 (%) (optimal transfection efficiency as percentage of the highest efficiency obtained by Lipofectamine) [1, 6]: 9% | Results COS7 (%) (optimal transfection efficiency as percentage of the highest efficiency obtained by Lipofectamine) [1, 7]: 12% | Results COS7 (%) (optimal transfection efficiency as percentage of the highest efficiency obtained by Lipofectamine) [1, 8]: 58% | Results HeLaS3 (%) (optimal transfection efficiency as percentage of the highest efficiency obtained by Lipofectamine) [2, 5]: 7% | Results HeLaS3 (%) (optimal transfection efficiency as percentage of the highest efficiency obtained by Lipofectamine) [2, 6]: 7% | Results HeLaS3 (%) (optimal transfection efficiency as percentage of the highest efficiency obtained by Lipofectamine) [2, 7]: 9% | Results HeLaS3 (%) (optimal transfection efficiency as percentage of the highest efficiency obtained by Lipofectamine) [2, 8]: 35%

CCCCCCCCCCCC[N+](C)(C)CC[N+](C)(CCCCCCCCCCCC)CC[N+](C)(C)CCCCCCCCCCCC.[Br-].[Br-].[Br-] [R = 12, N,N′,N″-tridodecyl-N,N,N′,N″,N″-pentamethyl-bis-(2-ammonioethyl)-ammoniumbromide]
Results COS7 (%) (optimal transfection efficiency as percentage of the highest efficiency obtained by Lipofectamine) [1, 5]: 3% | Results COS7 (%) (optimal transfection efficiency as percentage of the highest efficiency obtained by Lipofectamine) [1, 6]: 5% | Results COS7 (%) (optimal transfection efficiency as percentage of the highest efficiency obtained by Lipofectamine) [1, 7]: 8% | Results COS7 (%) (optimal transfection efficiency as percentage of the highest efficiency obtained by Lipofectamine) [1, 8]: 29% | Results HeLaS3 (%) (optimal transfection efficiency as percentage of the highest efficiency obtained by Lipofectamine) [2, 5]: 0% | Results HeLaS3 (%) (optimal transfection efficiency as percentage of the highest efficiency obtained by Lipofectamine) [2, 6]: 9% | Results HeLaS3 (%) (optimal transfection efficiency as percentage of the highest efficiency obtained by Lipofectamine) [2, 7]: 17% | Results HeLaS3 (%) (optimal transfection efficiency as percentage of the highest efficiency obtained by Lipofectamine) [2, 8]: 63%

Ethanediyl-1,2-bis(decyl dimethylammonium) iodide
Results (%) (optimal transfection efficiency as percentage of the highest efficiency obtained by Lipofectamine) [4, 9]: > 3230* % | Results (%) (optimal transfection efficiency as percentage of the highest efficiency obtained by Lipofectamine) [4, 10]: > 3230* % | Results (%) (optimal transfection efficiency as percentage of the highest efficiency obtained by Lipofectamine) [4, 11]: 686% | Results (%) (optimal transfection efficiency as percentage of the highest efficiency obtained by Lipofectamine) [4, 12]: 457% | ranking of transfection efficiency among the counter ions (in words) [4]: highest transfection efficiencies | transfection efficiency compared with Lipofectamine (in words) [4]: higher transfection efficiency values than transfections with Lipofectamine

Ethanediyl-1,2-bis(dodecyl dimethylammonium bromide) [12-2-12]
Result (%) (transfection efficiency as percentage of Lipofectamine efficiency) [3, 9]: 70% | Result (%) (transfection efficiency as percentage of Lipofectamine efficiency) [3, 10]: 127% | Result (%) (transfection efficiency as percentage of Lipofectamine efficiency) [3, 11]: 138% | Result (%) (transfection efficiency as percentage of Lipofectamine efficiency) [3, 12]: 89%

Ethanediyl-1,2-bis(octadecyl dimethylammonium bromide) [18-2-18]
Result (%) (transfection efficiency as percentage of Lipofectamine efficiency) [3, 9]: 82% | Result (%) (transfection efficiency as percentage of Lipofectamine efficiency) [3, 10]: 68% | Result (%) (transfection efficiency as percentage of Lipofectamine efficiency) [3, 11]: 105% | Result (%) (transfection efficiency as percentage of Lipofectamine efficiency) [3, 12]: 115%
